Source: a melting point compilation (Tetko et al.; mined from patent text by program, amines drawn as free bases though some values may be those of a salt)

Work on `CC(=O)NC1CCC(=O)c2ccccc21` (configuration not stated) yielded a melting point of 128 to 130 °C. `Cc1cccc(NC(=O)OCC2CCCCN2C)c1` (configuration not stated) showed a melting point of 73.5 to 75.5 °C. Compound `Cc1sc2c(Br)c3ccccc3c(-c3ccc(O)c(N)c3)c2c1C` has a melting point of 173 to 175 °C. For `CC(O)(c1nc2cc(S(=O)(=O)c3ccccc3)ccc2s1)C(F)(F)F` (configuration not stated), the melting point was 126 to 128 °C. With `CC(C)=CCOC(C)C1CC=C2C3=C(CCC21C)C1(C)CCC(OC(=O)CCC(=O)O)C(C)(C)C1CC3` (configuration not stated) the melting point was 60 to 67 °C. In the case of `CC(C)c1ccc2c(c1)C=C(/C=C/C=C/C=C/C(=O)O)CO2`, the melting point is reported as 244 to 246 °C. In the case of `COc1ccc(-n2nnnc2C(F)(F)F)cc1CN[C@H]1CCN(C(=O)CNC(C)=O)C[C@H]1c1ccccc1`, the melting point is reported as 112 to 115 °C. Compound `COc1ccc(-c2ccc(C(=O)c3ccccc3)cc2)cc1` has a melting point of 167 to 168 °C. In the case of `CCCc1c(OCc2ccc(CSc3nnn[nH]3)cc2)ccc(C(C)=O)c1O`, the melting point is reported as 160 to 161 °C. With `CNC(=O)c1cccc(NC(=O)Cc2c(C)ccc3ccccc23)c1` the melting point was 230 to 231 °C. `COC(=O)CN1CC([N+](=O)[O-])=C(Cc2ccc(C(C)(C)C)cc2)C=C1C` gave a melting point of 135 °C. Work on `CCCCC1(N(C)C)CCC(c2[nH]c3ccccc3c2CCC)CC1` (configuration not stated) yielded a melting point of 127 to 130 °C. `CN(NC(=O)OCc1ccccc1)C(=O)c1cc(OCc2ccccc2)c(OCc2ccccc2)c(CNC(=O)OC(C)(C)C)n1` gave a melting point of 125 to 127 °C. `CN1C(=O)C(C(=N)c2ccccc2)=C(O)CC1c1ccccc1` (configuration not stated) gave a melting point of 117 to 120 °C. In the case of `CCc1cnc(N2CCC(c3nc4cc(-c5ccc(S(C)(=O)=O)cc5F)ccc4[nH]3)CC2)nc1`, the melting point is reported as 186 to 190 °C. `CCOC(=O)c1cn2c(cc(OC(C)C)c3ccc(OC)cc32)n1` gave a melting point of 117 to 118 °C. `O=C(Nc1ccccc1)c1cccc(Oc2cccc(C(F)(F)F)c2)n1` gave a melting point of 92 to 93 °C. In the case of `CCCNCc1cnc2c(C)c(NC(=O)c3ccc(OC[C@@H]4CCCO4)cc3F)ccc2c1`, the melting point is reported as 120 to 121 °C. `Cc1cccc(C)c1C(N)=NO` gave a melting point of 77 to 79 °C. `Cc1nc(-c2ccc3c(c2)OCO3)c2cc3c(cc2n1)OCO3` gave a melting point of 207 to 210 °C. `Cc1cc([N+](=O)[O-])c(O)c2c1CCC2=O` showed a melting point of 154 to 157 °C. `CCSCCOC(=O)C(=O)Nc1nc(-c2ccccc2)cs1` showed a melting point of 148 to 149 °C. `O=C(Nc1cc2ncc(CN3CCCC3)cc2cc1F)c1ccc(Br)cc1` showed a melting point of 119 to 121 °C. `O=C(Cl)c1sc2cc(OCc3ccccc3)ccc2c1Cl` gave a melting point of 132 to 134 °C. In the case of `O=C1N(c2ccc(Cl)c(Cl)c2)CCON1c1ccccc1`, the melting point is reported as 112 to 113 °C. `COC(=O)c1sc2cc(CCl)ccc2c1C` gave a melting point of 128 to 129 °C. `COc1ccc(-c2ccc(C(=O)NCCOc3ccc(CC(Oc4ccc(C(C)C)cc4)C(=O)O)cc3)cn2)cc1` (configuration not stated) gave a melting point of 166 to 167 °C. In the case of `Cc1cc(Cl)nc(SCC#N)n1`, the melting point is reported as 62 to 65 °C. In the case of `CSc1nc2c(Cl)cc(Cl)c([N+](=O)[O-])c2s1`, the melting point is reported as 130 to 132 °C. Compound `C=CCOc1cc(OC(=S)N2CCSC2)ccc1Cl` has a melting point of 104 to 106 °C. With `C=CC(=O)OCc1c(Br)c(Br)c(Br)c(COC(=O)C=C)c1Br` the melting point was 105 to 108 °C. Compound `CC(=O)OCC1OC(n2cc(C(Cl)=CI)c(=O)[nH]c2=O)C(OC(C)=O)C1OC(C)=O` (configuration not stated) has a melting point of 85 to 87 °C. Compound `COc1ccc(O)c(C2C(=O)Nc3cccc(Br)c32)n1` (configuration not stated) has a melting point of 149 to 152 °C. In the case of `CCC(=O)c1c(C)[nH]c(-c2ccccc2)c1N`, the melting point is reported as 166 to 168 °C. Compound `O=C(c1ccccc1F)c1cc(Cl)ccc1CSc1ccccc1` has a melting point of 81 to 82 °C. Compound `CCn1cc(CN(C(=O)C2CCCc3cc(OC)ccc32)c2ccc(C(C)C)cc2)cn1` (configuration not stated) has a melting point of 111 to 113 °C. `O=[N+]([O-])c1ccc(Oc2ccc(S(=O)(=O)c3ccc(Oc4ccc([N+](=O)[O-])c(O)c4)cc3)cc2)cc1O` gave a melting point of 220 to 222 °C. Compound `Cc1cc(C)nc(NC(=O)NS(=O)(=O)C2CC3C=CC2O3)n1` (configuration not stated) has a melting point of 125 to 145 °C. Work on `O=C(CCc1ccccc1)N[C@H](Cc1ccc(C(F)(F)F)cc1)[C@@H](O)c1cccc(Oc2ccccc2)c1` (racemic) yielded a melting point of 134 to 135 °C. `C[C@H](C(=O)O)c1ccc2cc(OCCCCCCc3ccc(O)c(O)c3)ccc2c1` showed a melting point of 103 to 106 °C. For `COc1ccc2c3c([nH]c2c1)C(=S)C(CC1CCN(C(=O)OC(C)(C)C)CC1)C3` (configuration not stated), the melting point was 188 to 189 °C. Work on `CN(C)C1CCn2c1nc1cc(NC(=O)c3cc4cc(C(F)(F)F)ccc4n3Cc3cccc(F)c3)cnc12` (single isomer, unassigned; (-)) yielded a melting point of 203 to 205 °C. `CSC(=C[N+](=O)[O-])NCCSCc1ccco1` gave a melting point of 68 to 70 °C. With `CCOC(=O)C(C)c1ccc(N[C@@H](CCC(N)=O)C(=O)O)cc1` (some centres not stated) the melting point was 157 to 158 °C. Compound `CN(C)C1(Cc2ccccc2)CCC(=O)CC1` has a melting point of 80 to 84 °C. With `CN(C)C(=O)c1nc2n(n1)-c1ccc([N+](=O)[O-])cc1C(c1ccccc1)=NC2` the melting point was 209 to 211 °C. For `COc1cnc(OC(c2ccccc2)(c2ccccc2)c2ccccc2)cc1OC1CCCC1`, the melting point was 132 to 133 °C. In the case of `CC(C)=C1C(=O)N(c2ccc(O)cc2)C(=O)/C1=C(\C)c1cc(C)oc1C`, the melting point is reported as 206 to 208 °C. For `CNc1cc(NS(=O)(=O)c2ccc(NC(C)=O)cc2)nc(N2CCCC2)n1`, the melting point was 271 to 274 °C. Compound `BrCCCCOc1ccc(OCCCBr)cc1` has a melting point of 73 to 76 °C. In the case of `CSCC1CCN(c2cn(-c3cccnc3)nc2Cl)C1=O` (configuration not stated), the melting point is reported as 83 to 84 °C. Compound `CCOCOc1cc(C)ccc1-c1cc(-c2cccc([N+](=O)[O-])c2)c(C#N)c(N)n1` has a melting point of 148 to 149 °C. In the case of `Cc1cccc2c1C(=O)N(C1(C(=O)Nc3ccc(Cl)cc3)CCCCC1)C2=O`, the melting point is reported as 208 to 209 °C. With `CCOC(=O)c1ccc(N2CCCC2=O)cc1` the melting point was 94 to 95 °C. `CCOCn1c(-c2ccc(Cl)cc2)c(C(N)=O)c(Br)c1C(F)(F)F` showed a melting point of 163 to 172 °C. With `Cc1c(C2CCN(Cc3ccc(Cl)cc3)CC2)n[nH]c1-c1ccccc1` the melting point was 192 to 193 °C. In the case of `Cc1nc(-c2ccccc2)nc(N2CCN(c3ccc(O)cc3)CC2)c1C`, the melting point is reported as 202 °C. `CCCC(=O)OCC(=O)C1(OC(=S)CC)CCC2C3CC(C)C4=CC(=O)C=CC4(C)C3C(O)CC21C` (configuration not stated) showed a melting point of 126 to 128 °C. `COc1cc(-c2cnc3[nH]c(=O)n(CC4CCCCC4)c3n2)ccn1` showed a melting point of 295 to 297 °C. Work on `CCc1ccc(C=CC(=O)NN2CC(=O)NC2=O)cc1Cl` yielded a melting point of 231 to 234 °C. Compound `CCCn1nc2c(N)nc3c(c2c1CCCc1cc(-c2cccnc2)no1)CCCC3` has a melting point of 168 to 170 °C. Compound `CS(=O)(=O)c1cn(CC2=NCCN2)c2ccc(N)cc12` has a melting point of 215 to 217 °C. Compound `CC(C)n1nc(-c2nc(Sc3ccc(F)cc3)c(N)nc2-c2ccccc2)ccc1=O` has a melting point of 148 to 150 °C. For `ON=C1CCN(CC2c3ccccc3CCc3ccccc32)CC1`, the melting point was 199 to 202 °C. `Cc1cc(F)cc([N+](=O)[O-])c1N` gave a melting point of 111 to 113 °C. `O=C(C1=NN(c2ccc(Cl)cc2Cl)C(c2ccc(Cl)cc2)C1)N1CCCCC1` (configuration not stated) showed a melting point of 105 to 110 °C. Compound `COC(=O)c1sc(C(=O)OC)c(OC)c1C` has a melting point of 61 to 64 °C. Work on `CCN(CC)c1cc2c(cc1C)Nc1c(cc(NC(C)=O)c3ncn(C)c13)O2` yielded a melting point of 217 to 218 °C. Work on `O=C(CCCCl)Nc1ccc2c(c1)C(=O)c1cc(NC(=O)CCCCl)ccc1C2=O` yielded a melting point of 234 °C. Work on `O=C(O)CCC(=O)c1ccc2[nH]c3nc(Cl)ccc3c2c1` yielded a melting point of 281 °C. Compound `CN1CCN(Cc2ccc(C(=O)Nc3ccc(CO)c(Nc4nccc(-c5cccnc5)n4)c3)cc2)CC1` has a melting point of 196 to 198 °C. With `COc1ccc(CN(C)CCN(C)Cc2ccc(NC(=O)c3cccc4c(=O)c5cccc(OC)c5[nH]c34)cc2)cc1OC` the melting point was 170 °C. In the case of `CC(C)(CCn1cnc(-c2ccccc2)c1)NCC(O)c1ccc(O)c(NS(C)(=O)=O)c1` (configuration not stated), the melting point is reported as 133 to 136 °C. For `CN1C(=O)CC[C@]2(C)c3ccc(-c4ccc(F)c(Cl)c4)cc3CC[C@@H]12`, the melting point was 114 to 116 °C. `CCc1cc(OC)c(-c2csc(NC(=O)c3cc4ccccc4[nH]3)n2)c(OC)c1` showed a melting point of over 260 °C. With `Cc1cc2c(-c3ccc(Br)cc3)c(CC(=O)O)c(=O)oc2cc1Cl` the melting point was 238 to 239 °C. `COc1ccc2ccccc2c1CCl` gave a melting point of 122 to 123 °C. Compound `CCCCCCCCCCCOC(=O)NCCC` has a melting point of 45 to 45.5 °C. Compound `COc1cc(-n2cnc3cc(-c4ccc(Cl)cc4)sc3c2=O)ccc1OCCN1CCCC1` has a melting point of 214 to 215 °C. In the case of `Cc1cc(C(=O)N2Cc3cccn3Cc3ccccc32)ccc1C1=CCCCC1C` (configuration not stated), the melting point is reported as 132 to 133 °C. With `CCCCCCCCSc1nc(SCCCCCCCC)nc(-c2cc(C)c(O)c(C)c2)n1` the melting point was 75 to 76 °C. `CCN(CC)C(=O)c1ccc(Cl)c(Cl)c1Br` gave a melting point of 196 °C. Compound `CC(C(=O)O)c1ccc(-n2cccn2)c(Cl)c1` (configuration not stated) has a melting point of 83 to 85 °C. `COc1ccc([C@@H]2C[C@H]2CNC(=O)N(C)O)cc1` (relative stereo) gave a melting point of 112 °C. With `CC1(N)CN(c2nc3c(cc2F)c(=O)c(C(=O)O)cn3C2CC2)C1` the melting point was 285 to 287 °C. With `CN(C)CC=CC(=O)Nc1ccc2ncnc(Nc3cccc(Br)c3)c2c1` the melting point was 215 to 217 °C. `CN(C)c1ccc(NC(=O)N(CC2CCCC(CN(C(=O)Nc3ccc(N(C)C)cc3)C3CC4CCC3C4)C2)C2CC3CCC2C3)cc1` (configuration not stated) gave a melting point of 110 to 115 °C. Work on `CCOC(=O)c1ncn2c1cc(-c1ccccc1)c1ccccc12` yielded a melting point of 176 to 185 °C. `CC(C)CNC(=O)COc1ccc(C2=NNC(=O)NC2C)cc1Cl` (configuration not stated) showed a melting point of 205 to 206 °C. In the case of `CCCOC1(c2ccc(C)cc2C)N=C(c2ccc(C)cc2C)N=CN1` (configuration not stated), the melting point is reported as 86 to 88 °C. Compound `Nc1ccc(S(=O)(=O)Nc2ccn(C3CCCCC3)c(=O)n2)cc1` has a melting point of 100 to 120 °C. In the case of `CCOC(=O)[C@@H]1Cc2ccccc2N1C(=O)CC[C@@H](NC(=O)OCc1ccccc1)C(=O)OCc1ccccc1`, the melting point is reported as 114 to 116 °C. Work on `COc1ccc2[nH]cc(C3CCC4(CC3)OCCO4)c2c1` yielded a melting point of 153 to 155 °C. `O=S(=O)(c1cccc(-c2cc(-c3nc(-c4ccc(C(F)(F)F)cc4)cc(C(F)(F)F)n3)ccn2)c1)N1CCOCC1` gave a melting point of 202 °C. `COc1ccc(C=Cc2nc(CCl)co2)cc1` showed a melting point of 148 to 151 °C. Work on `CN(C)C(=S)CCC(c1ccccc1)(c1ccccc1)c1ccccc1` yielded a melting point of 114 to 116 °C. With `COc1cc2c(c3c1OC(C)(C)C3)C(c1cccc(C(=O)N[C@H]3CNC3=O)c1)=NC(C)(C)C2` the melting point was 154 to 157 °C.
